Measurements: patent publication US11970496B1, “Pyrrolo[3,2-c]quinoline compounds as CK2 inhibitors” (KING FAISAL UNIVERSITY, priority 2023, dated 2024)

How the values were obtained:
MDA-MB-231 (breast) = experiment: In vitro cytotoxic activity assay (MTT), MDA-MB-231; format: cell-based; settings: Homo sapiens; MDA-MB-231 cells, exposed for 96 hours; read-out: IC50, 50% inhibition of cell proliferation, MDA-MB-231 (breast)
Experimental: (§1) Compounds 1-12 were screened for their in vitro cytotoxic activity utilizing a 3-(4,5-dimethyl-thiazol-2-yl)-2,5-diphenyltetrazolium bromide (MTT) assay against selected cancer human cell lines consisting of PC3 (prostate), HCT116 (colon), A375 (melanoma), H1299 (lung), MIAPaCa-2 (pancreas), HL60 (leukemia), MCF7 (breast), MDA-MB-231 (breast) (T. Mosmann, J. Immunol. Meth., 1983, 65, 55-63). The cells were cultured at 37° C. in RMPI1640 medium supplemented with 10% fetal bovine serum, 50 IU/mL penicillin, and 50 μg/mL streptomycin in a 5% CO2 incubator. All cells were sub-cultured 3 times/week by trypsinisation. Viable cells were seeded and allowed to adhere for 12 h before a test drug was added in 96-well plates at an initial density of 1.0×10^5 cells/mL. Tumour cell lines were separately exposed to various concentrations of the tested compounds followed by incubation at a temperature of 37° C. during 96 h inside a medium of fresh RMPI 1640. Cells were subsequently incubated at 37° C. using MTT at 0.5 mg/mL during 4 h. After removal of supernatant, formazan crystals were dissolved in isopropanol and the optical density was measured at 570 nm. CX-4945 was used as a positive control.

HL60 (leukemia) = experiment: In vitro cytotoxic activity assay (MTT), HL60; format: cell-based; settings: Homo sapiens, HL-60; HL60 cells, exposed for 96 hours; read-out: IC50, 50% inhibition of cell proliferation, HL60 (leukemia)
Experimental: as §1

[1] = molecular target: T1, recombinant human CK2 (RRββ-holoenzyme) (Homo sapiens, UniProt P68400); experiment: CK2 Kinase Assay (33P-ATP, substrate peptide RRRDDDSDDD); format: biochemical; settings: final ATP concentration 15 μM, 10 min at 30° C.; read-out: protein kinase CK2 IC50
T1 construct: purchased Millipore
Experimental: CK2 Kinase Assay was conducted using the protocol as described in Pierre F. et al; J. Med. Chem. 2011, 54, 635-654. The tested compounds in aqueous solution were added at a volume of 10 μL to a reaction mixture comprising 10 μL of assay dilution buffer (ADB; 20 mM MOPS, pH 7.2, 25 mM (3-glycerol phosphate, 5 mM EGTA, 1 mM sodium orthovanadate, and 1 mM dithiothreitol), 10 μL of substrate peptide (RRRDDDSDDD, dissolved in ADB at a concentration of 1 mM), 10 μL of recombinant human CK2 (RRββ-holoenzyme, 25 ng dissolved in ADB; Millipore). Reactions were initiated by the addition of 10 μL of ATP solution (90% 75 mMMgCl2, 75 μM ATP (final ATP concentration: 15 μM) dissolved in ADB; 10% [γ-33P] ATP (stock 1 mCi/100 μL; 3000 Ci/mmol (Perkin-Elmer) and maintained for 10 min at 30° C. The reactions were quenched with 100 μL of 0.75% phosphoric acid and then transferred to and filtered through a phosphor cellulose filter plate (Millipore). After washing each well five times with 0.75% phosphoric acid, the plate was dried under vacuum for 5 min and, following the addition of 15 μL of scintillation fluid to each well, the residual radioactivity was measured using a Wallac […]. The IC50 values were derived from eight concentrations of test inhibitors.

HCT116 (colon) = experiment: In vitro cytotoxic activity assay (MTT), HCT116; format: cell-based; settings: Homo sapiens, HCT-116; HCT116 cells, exposed for 96 hours; read-out: IC50, 50% inhibition of cell proliferation, HCT116 (colon)
Experimental: as §1

PC3 (prostate) = experiment: In vitro cytotoxic activity assay (MTT), PC3; format: cell-based; settings: Homo sapiens, PC-3; PC3 cells, exposed for 96 hours; read-out: IC50, 50% inhibition of cell proliferation, PC3 (prostate)
Experimental: as §1

A375 (melanoma) = experiment: In vitro cytotoxic activity assay (MTT), A375; format: cell-based; settings: Homo sapiens, A-375; A375 cells, exposed for 96 hours; read-out: IC50, 50% inhibition of cell proliferation, A375 (melanoma)
Experimental: as §1

H1299 (lung) = experiment: In vitro cytotoxic activity assay (MTT), H1299; format: cell-based; settings: Homo sapiens, NCI-H1299; H1299 cells, exposed for 96 hours; read-out: IC50, 50% inhibition of cell proliferation, H1299 (lung)
Experimental: as §1

MIAPaCa-2 (pancreas) = experiment: In vitro cytotoxic activity assay (MTT), MIAPaCa-2; format: cell-based; settings: Homo sapiens, MIA PaCa-2; MIAPaCa-2 cells, exposed for 96 hours; read-out: IC50, 50% inhibition of cell proliferation, MIAPaCa-2 (pancreas)
Experimental: as §1

MCF7 (breast) = experiment: In vitro cytotoxic activity assay (MTT), MCF7; format: cell-based; settings: Homo sapiens; MCF7 cells, exposed for 96 hours; read-out: IC50, 50% inhibition of cell proliferation, MCF7 (breast)
Experimental: as §1

T1 sequence (P68400 whole entry): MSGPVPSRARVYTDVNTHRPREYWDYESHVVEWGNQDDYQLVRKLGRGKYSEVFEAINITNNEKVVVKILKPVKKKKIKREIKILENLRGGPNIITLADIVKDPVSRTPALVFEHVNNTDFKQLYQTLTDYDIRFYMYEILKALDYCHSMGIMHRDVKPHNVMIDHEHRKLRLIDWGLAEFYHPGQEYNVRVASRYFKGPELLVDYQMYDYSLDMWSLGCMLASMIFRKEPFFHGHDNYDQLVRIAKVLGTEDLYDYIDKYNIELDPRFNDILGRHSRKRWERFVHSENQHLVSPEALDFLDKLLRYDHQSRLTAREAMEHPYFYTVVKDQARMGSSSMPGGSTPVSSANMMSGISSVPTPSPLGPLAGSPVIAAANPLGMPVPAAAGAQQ
T1 sequence (P67870 whole entry partner): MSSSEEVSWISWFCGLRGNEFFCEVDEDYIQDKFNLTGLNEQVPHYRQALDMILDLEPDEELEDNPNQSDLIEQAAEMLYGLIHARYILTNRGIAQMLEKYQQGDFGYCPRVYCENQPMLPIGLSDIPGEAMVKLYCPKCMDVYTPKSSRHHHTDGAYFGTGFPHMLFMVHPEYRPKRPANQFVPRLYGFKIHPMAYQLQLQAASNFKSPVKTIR

Work on `O=C(O)c1ccc2c(c1)nc(Nc1cccc(Cl)c1)c1cc(C(=O)O)[nH]c12` [Compound 1, 4-((3-chlorophenyl)amino)-1H-pyrrolo[3,2-c]quinoline-2,7-dicarboxylic acid] yielded an IC50 (MDA-MB-231 (breast)) of 3500 nM, an IC50 (HL60 (leukemia)) of 2900 nM and an IC50 [1] of 37 nM. The IC50 (HCT116 (colon)) was 1900 nM, the IC50 (PC3 (prostate)) was 1800 nM and the IC50 (A375 (melanoma)) was 2200 nM. It also gave an IC50 (H1299 (lung)) of 1600 nM, an IC50 (MIAPaCa-2 (pancreas)) of 1300 nM and an IC50 (MCF7 (breast)) of 4400 nM.
